Paper PMC8387043, “Host Poly(A) Polymerases PAPD5 and PAPD7 Provide Two Layers of Protection That Ensure the Integrity and Stability of Hepatitis B Virus RNA” (Journal of Virology, 2021)

Columns and labels:
HBV [1] = test: HBsAg inhibition in PLC/PRF/5 cells; type: cell-based; conditions: Hepatitis B virus
Method: AB-452 and RG7834 both belong to the dihydroquinolizinones chemical class. The antiviral activities of AB-452 and its diastereomer ARB-169451 were evaluated using multiple in vitro HBV replication models, including HepG2.2.15 cells (which constitutively express HBV through the integrated viral genome), PLC/PRF/5 cells (a patient-derived hepatocellular carcinoma cell line only expressing HBsAg), and HBV-infected HepG2-NTCP cells or primary human hepatocytes (PHHs) in which viral replication was dependent on cccDNA transcription (Table 1).
HepG2.2.15, HepAD38, and PLC/PRF/5 cells were cultured in Dulbecco’s modified Eagle medium (DMEM)/F12 medium (Corning, NY, USA), supplemented with 10% fetal bovine serum (Gemini, CA, USA), 100 U/ml penicillin, and 100 μg/ml streptomycin. Huh-7 cells (Creative Bioarray, NY, USA) were cultured in RPMI 1640 medium (Basel, Switzerland) containing 10% fetal bovine serum, 100 U/ml penicillin, and 100 μg/ml streptomycin. HepG2-hNTCP-C4 cells were cultured in DMEM medium (Gibco, MA, USA) containing 10% fetal bovine serum and 10 mM HEPES (Gibco).

[2] = system: panel of 10 different RNA and DNA viruses; test: Antiviral selectivity panel (summary statement); type: cell-based; conditions: read-out: EC50 against a panel of 10 different RNA and DNA viruses
Method: HepG2.2.15 (30,000 cells/well) were plated in 96-well collagen-treated plates and incubated at 37°C. Compounds were half-log serially diluted and added in duplicate to 96-well microtiter plates. The plates were incubated for a total duration of 6 days, after which the culture medium was removed for the HBsAg and HBeAg CLIA assays (AutoBio Diagnostics Co., China) performed according to the manufacturer’s instructions. Secreted HBV DNA was extracted (Realtime Ready cell lysis kit; Roche, Mannheim, Germany) and quantified in a qPCR assay (LightCycler 480 SYBR green I master mix; Roche) with the 5′-[…]-3′ (sense) and 5′-[…]-3′ (antisense) primers using the PCR conditions of denaturing at 95°C for 5 min followed by 40 cycles of amplification at 95°C for 15 s and 60°C for 30 s. Antiviral selectivity studies against a panel of different DNA and RNA viruses were performed at ImQuest BioSicences (Frederick, MD, USA). Briefly, test compounds were evaluated using 6 doses, including the highest concentration of 30 μM and five serial half-logarithmic dilutions in triplicate for the antiviral assays.

HBV [3] = test: HBV replication intermediates and viral proteins in HepG2.2.15 cells (Northern, Western, particle gel, Southern); type: cell-based, hepatitis B virus; conditions: HepG2.2.15, 6 days; ETV, GLS-4, cmpdA 1 μM; AB-452 70 nM
Method: Total cellular RNA was extracted from HepG2.2.15 or HepAD38 cells treated with or without antiviral compounds using TRIzol reagent according to the manufacturer's directions (Thermo Fisher Scientific, Waltham, MA). Northern blotting was performed as described previously ([1]). Briefly, total RNA was separated in a 1.5% agarose gel and transferred onto an Amersham Hybond-XL membrane (product no. GERPN303S; GE Healthcare, IL, USA). Membranes were probed with an [α-^32P]UTP (PerkinElmer, CT, USA)-labeled minus strand-specific full-length HBV riboprobe (3.2 kb) transcribed from plasmid pSP65_HBV(+) DNA. Membranes were exposed to a phosphoimager screen, and the hybridization signals were quantified using Image Studio software (Li-Cor Biosciences, NE, USA).
Total intracellular viral core-associated DNA was extracted as described previously ([1]) and analyzed by Southern blotting hybridization with an [α-^32P]UTP-labeled full-length HBV riboprobe (3.2 kb) that specifically hybridized to minus strand of viral DNA. Membranes were exposed to a phosphoimager screen, and the hybridization signals were quantified using Image Studio software.
HepG2.2.15 or HepAD38 cells cultured in a 12-well plate were lysed with 200 μl Laemmli sample buffer (Bio-Rad, PA, USA) supplemented with 2.5% 2-mercaptoethanol (Sigma-Aldrich, MO, USA). […]

Cytotoxicity = type: cell-based
Source text: TABLE 3 Cytotoxicity of AB-452 against cells derived from various tissues | column: AB-452 CC50 (μM)

COCCCOc1cc2c(nc1OC)-c1cc(=O)c(C(=O)O)cn1[C@H](C(C)C)C2 [AB-452]
EC50 (HBV [1]): 0.0023 ± 0.00036 µM
EC50 [2]: > 30 µM
Effect on HBV replication intermediates and viral proteins (HBV [3]): reducing intracellular pgRNA, sRNA, core protein, native capsids, encapsidated pgRNA, and replicating HBV DNA
CC50 (Cytotoxicity; African green monkey, Vero cells (kidney)): > 30 µM
CC50 (Cytotoxicity; HEp2, human epithelial cells): > 30 µM
CC50 (Cytotoxicity; HeLa, human cervical cancer cells): > 30 µM
CC50 (Cytotoxicity; cattle (bovine), MDBK cells (kidney)): > 30 µM
CC50 (Cytotoxicity; hamster, BHK21 cells (kidney)): > 30 µM
CC50 (Cytotoxicity; human, CEM-SS cells (T lymphoblast)): > 30 µM
CC50 (Cytotoxicity; human, MRC5 cells (lung fibroblasts)): > 30 µM
